# Measured values: patent US5281602A, “Angiotensin II receptor blocking 2,3,6-substituted 5,6,7,8-tetrahydro-pyrido[4,3-D]pyrimidin-4(3H)-ones” (American Cyanamid Company, priority 1993, dated 1994)
# Where “and” joins values, the source holds several entries; their conditions need not be identical. Identical values can stand only once.
# Tests used:
# Angiotension II Receptor = assay: Receptor Binding Assay: competition with [^125 I] (Sar^1,Ile^8) AngII on microsomal membranes; conditions: pH 7.4, 60 min, room temperature
# Method: Binding of [^125 I] (Sar^1,Ile^8) AngII
# The binding of [^125 I] (Sar^1,Ile^8) AngII to microsomal membranes is initiated by the addition of reconstituted membranes (1:10 vols.) in freshly made 50.0 mMTris.HCl buffer, pH 7.4 containing 0.25% heat inactivated bovine serum albumin (BSA):80 ul membrane protein (10 to 20 ug/assay) to wells already containing 100 ul of incubation buffer (as described above) and 20 ul [^125 I] (Sar^1,Ile^8) AngII (Specific Activity, 2200 Ci/mmole). Non-specific binding is measured in the presence of 1.0 uM unlabeled (Sar^1,Ile^8) AngII, added in 20 ul volume. Specific binding for [^125 I] (Sar^1,Ile^8) AngII is greater than 90%. In competition studies, experimental compounds are diluted in dimethylsulfoxide (DMSO) and added in 20 ul to wells before the introduction of tissue membranes. This concentration of DMSO is found to have no negative effects on the binding of [^125 I] (Sar^1,Ile^8) AngII to the membranes. Assays are performed in triplicate. […] Presoaking the filter sheet in 0.1% polyethylenemine in normal saline (PEI/Saline) greatly reduces the radioactivity retained by the filter blanks. […] The filters are removed from the filter grid and counted in a Parkard® Cobra Gamma Counter for 1 min. […] The binding data are analyzed by the non-linear interactive "LUNDON-1" program (LUNDON SOFTWARE Inc., Cleveland, Ohio U.S.A.). […]
# [1] = test system: ANGIOTENSIN II (A11) VASOPRESSOR RESPONSE; assay: AII Challenge: blockade of angiotensin II vasopressor response in conscious SHR; type: in vivo, rat (Conscious Male Okamoto-Aoki SHR)
# Source text: By administering a compound of this invention to a rat, and then challenging with angiotensin II, a blockage of the vasopressor response is realized.
# Conscious Male Okamoto-Aoki SHR, 16-20 weeks old, weighing approximately 330 g are purchased from Charles River Labs (Wilmington, Mass.). Conscious rats are restrained in a supine position with elastic tape. The area at the base of the tail is locally anesthetized by subcutaneous infiltration with 2% procaine. The ventral caudal artery and vein are isolated, and a cannula made of polyethylene (PE) 10-20 tubing (fused together by heat) is passed into the lower abdominal aorta and vena cava, respectively. The cannula is secured, heparinized (1,000 I.U./ml), sealed and the wound is closed. The animals are placed in plastic restraining cages in an upright position. The cannula is attached to a Statham P23Db pressure transducer, and pulsatile blood pressure is recorded to 10-15 minutes with a Gould Brush recorder. (Chan et al., (Drug Development Res., 18:75-94, 1989).
# Angiotensin II (human sequence, Sigma Chem. Co., St. Louis, Mo.) of 0.05 and 0.1 ug/kg i.v. is injected into all rats (predosing response). Then a test compound, vehicle or a known angiotensin II antagonist is administered i.v., i.p. or orally to each set of rats. […] The vasopressor response of angiotensin II is measured for the increase in systolic blood pressure in mmHg. The percentage of antagonism or blockade of the vasopressor response of angiotensin II by a compound is calculated using the vasopressor response (increase in systolic blood pressure) of angiotensin II of each rat predosing the compound as 100%. A compound is considered active if at 30 mg/kg i.v. it antagonized at least 50% of the response.
# [2] = 15 mg/kg IV, AII 0.05 mcg/kg IV, 30 min post dose
# [3] = 15 mg/kg IV, AII 0.05 mcg/kg IV, 60 min post dose
# [4] = 15 mg/kg IV, AII 0.05 mcg/kg IV, 90 min post dose
# [5] = 15 mg/kg IV, AII 0.1 mcg/kg IV, 30 min post dose
# [6] = 15 mg/kg IV, AII 0.1 mcg/kg IV, 60 min post dose
# [7] = 15 mg/kg IV, AII 0.1 mcg/kg IV, 90 min post dose
# [8] = under second '15 IV' line, AII 0.05 mcg/kg IV, 120 min
# [9] = under second '15 IV' line, AII 0.05 mcg/kg IV, 180 min
# [10] = under second '15 IV' line, AII 0.1 mcg/kg IV, 120 min
# [11] = under second '15 IV' line, AII 0.1 mcg/kg IV, 180 min
structure (smiles),measurement,setting,value
"CCCCc1nc2c(c(=O)n1Cc1ccc(-c3ccccc3-c3nnn[nH]3)cc1)CN(C(=O)OCc1ccccc1)CC2 [Example 7, Phenylmethyl 2-butyl-3,5,7,8-tetrahydro-4-oxo-3-[[2'-(1H-tetrazol-5-yl)[1,1' -biphenyl] -4-yl]methyl]pyrido[4,3-d]pyrimidin-6(4H)-carboxylate]",IC50,Angiotension II Receptor,660 nM
same,Average % Inhibition (angiotensin blockage) of AII vasopressor response,[1]; [2],71%
same,Average Change (systolic blood pressure response to AII),[1]; [2],11 mmHg
same,Average % Inhibition (angiotensin blockage) of AII vasopressor response,[1]; [3],33%
same,Average Change (systolic blood pressure response to AII),[1]; [3],25 mmHg
same,"Change (single reading, systolic blood pressure)","[1]; 15 mg/kg IV, AII 0.05 mcg/kg IV, 60 min post dose, 15 mg/kg",30 mmHg and 20 mmHg
same,Average % Inhibition (angiotensin blockage) of AII vasopressor response,[1]; [4],31%
same,Average Change (systolic blood pressure response to AII),[1]; [4],26 mmHg
same,"Change (single reading, systolic blood pressure)","[1]; 15 mg/kg IV, AII 0.05 mcg/kg IV, 90 min post dose, 15 mg/kg",30 mmHg and 22 mmHg
same,Average % Inhibition (angiotensin blockage) of AII vasopressor response,[1]; [5],59%
same,Average Change (systolic blood pressure response to AII),[1]; [5],17.5 mmHg
same,"Change (single reading, systolic blood pressure)","[1]; 15 mg/kg IV, AII 0.1 mcg/kg IV, 30 min post dose, 15 mg/kg",15 mmHg and 20 mmHg
same,Average % Inhibition (angiotensin blockage) of AII vasopressor response,[1]; [6],11%
same,Average Change (systolic blood pressure response to AII),[1]; [6],38 mmHg
same,"Change (single reading, systolic blood pressure)","[1]; 15 mg/kg IV, AII 0.1 mcg/kg IV, 60 min post dose, 15 mg/kg",40 mmHg and 36 mmHg
same,Average % Inhibition (angiotensin blockage) of AII vasopressor response,[1]; [7],0%
same,Average Change (systolic blood pressure response to AII),[1]; [7],42.5 mmHg
same,"Change (single reading, systolic blood pressure)","[1]; 15 mg/kg IV, AII 0.1 mcg/kg IV, 90 min post dose, 15 mg/kg",40 mmHg and 45 mmHg
same,Response After A11 (systolic blood pressure),"[1]; 15 mg/kg IV, after AII 0.05 mcg/kg IV, 30 min post dose, 15 mg/kg",192 mmHg and 175 mmHg
same,Response After A11 (systolic blood pressure),"[1]; 15 mg/kg IV, after AII 0.05 mcg/kg IV, 60 min post dose, 15 mg/kg",200 mmHg and 190 mmHg
same,Response After A11 (systolic blood pressure),"[1]; 15 mg/kg IV, after AII 0.05 mcg/kg IV, 90 min post dose, 15 mg/kg",200 mmHg and 182 mmHg
same,Response After A11 (systolic blood pressure),"[1]; 15 mg/kg IV, after AII 0.1 mcg/kg IV, 30 min post dose, 15 mg/kg",190 mmHg and 180 mmHg
same,Response After A11 (systolic blood pressure),"[1]; 15 mg/kg IV, after AII 0.1 mcg/kg IV, 60 min post dose, 15 mg/kg",215 mmHg and 206 mmHg
same,Response After A11 (systolic blood pressure),"[1]; 15 mg/kg IV, after AII 0.1 mcg/kg IV, 90 min post dose, 15 mg/kg",210 mmHg and 200 mmHg
same,Control Before A11 (systolic blood pressure),"[1]; 15 mg/kg IV, before AII 0.05 mcg/kg IV, 30 min post dose, 15 mg/kg",185 mmHg and 160 mmHg
same,Control Before A11 (systolic blood pressure),"[1]; 15 mg/kg IV, before AII 0.05 mcg/kg IV, 60 min post dose",170 mmHg
same,Control Before A11 (systolic blood pressure),"[1]; 15 mg/kg IV, before AII 0.05 mcg/kg IV, 90 min post dose, 15 mg/kg",170 mmHg and 160 mmHg
same,Control Before A11 (systolic blood pressure),"[1]; 15 mg/kg IV, before AII 0.1 mcg/kg IV, 30 min post dose, 15 mg/kg",175 mmHg and 160 mmHg
same,Control Before A11 (systolic blood pressure),"[1]; 15 mg/kg IV, before AII 0.1 mcg/kg IV, 60 min post dose, 15 mg/kg",175 mmHg and 170 mmHg
same,Control Before A11 (systolic blood pressure),"[1]; 15 mg/kg IV, before AII 0.1 mcg/kg IV, 90 min post dose, 15 mg/kg",170 mmHg and 155 mmHg
same,Average % Inhibition (angiotensin blockage) of AII vasopressor response,[1]; [8],87%
same,Average Change (systolic blood pressure response to AII),[1]; [8],5 mmHg
same,Average % Inhibition (angiotensin blockage) of AII vasopressor response,[1]; [9],33%
same,Average Change (systolic blood pressure response to AII),[1]; [9],25 mmHg
same,"Change (single reading, systolic blood pressure)",[1]; [9],25 mmHg
same,Average % Inhibition (angiotensin blockage) of AII vasopressor response,[1]; [10],81%
same,Average Change (systolic blood pressure response to AII),[1]; [10],8 mmHg
same,"Change (single reading, systolic blood pressure)",[1]; [10],6 mmHg and 10 mmHg
same,Average % Inhibition (angiotensin blockage) of AII vasopressor response,[1]; [11],32%
same,Average Change (systolic blood pressure response to AII),[1]; [11],29 mmHg
same,"Change (single reading, systolic blood pressure)",[1]; [11],38 mmHg and 20 mmHg
same,Response After A11 (systolic blood pressure),"[1]; under second '15 IV' line, after AII 0.05 mcg/kg IV, 120 min",195 mmHg and 185 mmHg
same,Response After A11 (systolic blood pressure),"[1]; under second '15 IV' line, after AII 0.05 mcg/kg IV, 180 min",200 mmHg and 160 mmHg
same,Response After A11 (systolic blood pressure),"[1]; under second '15 IV' line, after AII 0.1 mcg/kg IV, 120 min",176 mmHg and 180 mmHg
same,Response After A11 (systolic blood pressure),"[1]; under second '15 IV' line, after AII 0.1 mcg/kg IV, 180 min",215 mmHg and 160 mmHg
same,Control Before A11 (systolic blood pressure),"[1]; under second '15 IV' line, before AII 0.05 mcg/kg IV, 120 min",185 mmHg
same,Control Before A11 (systolic blood pressure),"[1]; under second '15 IV' line, before AII 0.05 mcg/kg IV, 180 min",175 mmHg and 135 mmHg
same,Control Before A11 (systolic blood pressure),"[1]; under second '15 IV' line, before AII 0.1 mcg/kg IV, 120 min",170 mmHg
same,Control Before A11 (systolic blood pressure),"[1]; under second '15 IV' line, before AII 0.1 mcg/kg IV, 180 min",177 mmHg and 140 mmHg
